# Like-named read-outs stand apart in the source and are kept apart here.
# Tests used:
# [1] = test system: L. infantum chagasi promastigotes; details: read-out: IC50 (CI 95%): concentration of compound that causes 50% of L. infantum chagasi promastigotes mortality, 48 h, MTT
# Description: (§1) Subsequently, 0.5 mg/mL of 3-(4,5-dimethylthiazol-2-yl)-2,5-diphenyltetrazolium bromide (MTT, Sigma-Aldrich®, St. Louis, MO, USA) was added and the incubations continued for an additional 4 h at 26 °C. The purple formazan product that was formed by the action of mitochondrial enzymes in living cells was solubilized by the addition of acidic isopropanol, and the absorbance at 570 nm was measured using a microplate reader spectrophotometer EZ Read 400 from Biochrom. […] The 50% inhibitory concentration (IC50) value for each compound was determined. The survival rate was calculated according to the formula: OD in treated group/OD of untreated group x 100. The 50% inhibitory concentration (IC50) value for each compound was determined by nonlinear regression analysis using GraphPad Prism 5.03 software.
# [2] = test system: L. amazonensis promastigotes; design: method as in PMID 30077823; details: read-out: IC50 for L. amazonensis promastigotes (previous study); cited from earlier work
# [3] = test system: Macrophages RAW 264.7 cell line; details: read-out: CC50 towards macrophages (previous study); cited from earlier work
# [4] = test system: human erythrocytes; details: cited from earlier work
# [5] = test system: L. amazonensis promastigotes; details: for L. amazonensis mortality in the screening test: 100 µM screening concentration
# Description: as §1
# [6] = test system: L. amazonensis amastigotes in RAW 264.7 macrophages; assay: Intramacrophage anti-amastigote activity; assay type: cell-based, Leishmania (L.) amazonensis
# Description: The anti-amastigote assay was performed as previously described ([13]). Macrophages RAW 264.7 cell line (ATCC) were cultured in DMEM plus 10% fetal bovine serum (FBS), penicillin (100 U/mL) and streptomycin (100 µg/mL) until reaching 90% confluence, when were distributed into 96-well microplates at a concentration of 2 x 10^5 cells/well in the presence of DMEM. […] The leishmanicidal activity of macrophages was assessed by determining the number of viable parasites (4 replicates) using a hemocytometer.
# [7] = test system: human erythrocytes; details: for RBC50 (CI 95%): concentration of compound that causes 50% of red blood cell hemolysis: 60 min
# Description: Triton X-100 1% was used as positive control. The hemolytic assay was performed according to the procedure used by ([13]). […] The microplate was incubated at 37°C under agitation (90 rpm) for 60 min. Then, the suspension was centrifuged at 3,000 rpm for 5 min, and the absorbance of the supernatant was measured at 540 nm using a spectrophotometer EZ Read 400 from Biochrom. Triton X-100 1% and PBS were used as positive and negative control, respectively. […] The selectivity index (SI) (CC50 or RBC50/IC50 against L. amazonensis) were determined for each compound.
# [8] = test system: L. amazonensis promastigotes; assay: Mitochondrial membrane potential (rhodamine 123, flow cytometry); assay type: cell-based, Leishmania (L.) amazonensis; details: IS 2-fold IC50, 6 h; amphotericin B 0.4 µM; hydrogen peroxide 2 mM
# From the text: A total of 30,000 events were acquired in the region that corresponded to the parasites. Histograms were build using the CellQuest Pro software (Joseph Trotter, Scripps Research Institute, La Jolla, CA, USA).
# [9] = test system: Macrophages RAW 264.7 cell line
# [10] = in vitro; details: mouse; for CC50 at 48 h: CC50 (CI 95%): concentration of compound that causes 50% of macrophage mortality
# [11] = test system: L. infantum chagasi promastigotes; assay: microbe, parasite or virus in culture; details: Leishmania infantum; for IC50: 48 h
# Description: as §1
# [12] = test system: L. amazonensis promastigotes; assay: microbe, parasite or virus in culture; details: Leishmania amazonensis, 48 h
# Description: as §1
# [13] = test system: L. amazonensis promastigotes; assay: Detection of reactive oxygen species production (DCF-DA, flow cytometry); assay type: cell-based, Leishmania (L.) amazonensis; details: IS 2-fold IC50, 6 h; amphotericin B 0.4 µM; hydrogen peroxide 2 mM
# Description: ROS generation was quantified using the dye 2′,7′-dichlorofluorescein diacetate (DCF-DA, Sigma-Aldrich) and flow cytometer analysis ([13], [30], [31]). […] Then, cells were washed with PBS and incubated with 0.5 mL of 10 µM DCF-DA for 30 min at room temperature. After being washed with PBS, cells were resuspended in 0.5 mL PBS and analysed using a BD FACSCalibur (Becton–Dickinson, Rutherford, NJ, USA) flow cytometer and CellQuest Pro software (Joseph Trotter, Scripps Research Institute, La Jolla, CA, USA) using the blue argon-ion 488 nm laser with the FL1 filter channel. A total of 30,000 events were acquired in the region that corresponded to living parasite.
# [14] = test system: L. amazonensis promastigotes; assay: Cell membrane integrity (propidium iodide, flow cytometry); assay type: cell-based, Leishmania (L.) amazonensis; details: 1.8 µM (IC50), 48 h
# Description: After 48 h at 26°C, the parasites were harvested and washed twice with PBS, resuspended and incubated with 100 μL of propidium iodide (PI – Sigma–Aldrich) 50 μg/mL at 26°C for 15 min. Following, each sample was completed with 400 μL of PBS and a total of 20,000 events were acquired and analyzed on BD FACScalibur flow cytometer and CellQuest Pro software. PI fluorescence intensity was quantified as the percentage of the fluorescence compared with untreated promastigotes ([30]). Results were obtained from two independent experiments performed in triplicate.
# [15] = Leishmania amazonensis, RAW264.7, 48 h, read-out: IC50 (CI 95%): concentration of compound that causes 50% of L. amazonensis amastigotes mortality, infected RAW 264.7 macrophages, 48 h
# [16] = read-out: IC50 (CI 95%): concentration of compound that causes 50% of L. infantum chagasi promastigotes mortality, promastigotes, 48 h, MTT
# [17] = read-out: mortality of L. amazonensis promastigotes, 5 µM, 48 h
Structure (SMILES),IC50 [1],L. amazonensis mortality in the screening test ([5]; 48 h),"SI: selectivity index, ratio of CC50 for RBC hemolysis/IC50 for L. amazonensis amastigotes [7]","SI: selectivity index, ratio of CC50 for RBC hemolysis/IC50 for L. amazonensis promastigotes [7]",mitochondrial membrane potential (ΔΨm) alteration [8],IC50 [5],"SI: selectivity index, ratio of CC50 for macrophage/IC50 for L. amazonensis amastigotes [9]","SI: selectivity index, ratio of CC50 for macrophage/IC50 for L. amazonensis promastigotes [9]","IC50 [6, 15]","mortality at 5 µM [12, 17]",other results
"CCCCCCCCCCCCCCCCn1cc[n+](C)c1.CS(=O)(=O)[O-] [C16MImMeS, 1-hexadecyl-3-methylimidazolium methanesulfonate]",10.8 µM,,,,,,,,,,IC50 [2]: 0.75 µM; CC50 [3]: 11.5 µM; RBC50 erythrocytes (previous study) [4]: 36.9 µM
"CCCCCCCCCCCCCCCCn1cc[n+](C)c1 [C16MImCl, 1-hexadecyl-3-methylimidazolium chloride]",9.9 µM,,,,,,,,,,IC50 [2]: 1.23 µM
"CCCCn1cc[n+](C)c1.CS(=O)(=O)[O-] [C4MImMeS, 1-Butyl-3-methylimidazolium methanesulfonate]",,without activity,,,,,,,,,
"CCCCCCCCCCCCCCCCn1cc[n+](C)c1.[Br-] [C16MImBr, 1-hexadecyl-3-methylimidazolium bromide]",29.7 µM,100%,114,3.8,significant ΔΨm depolarization,6 µM,80,2.7,,,"IC50 ([6]; read-out: IC50 (CI 95%): concentration of compound that causes 50% of L. amazonensis amastigotes mortality, infected RAW 264.7 macrophages, 48 h): 0.2 µM; RBC50 (CI 95%): concentration of compound that causes 50% of red blood cell hemolysis ([7]; human red blood cells, 37°C): 22.8 (21.7-24) µM; mortality of L. amazonensis promastigotes ([5]; 5 µM, 48 h): 42%; CC50 at 48 h ([10]; RAW cells, 48 h, MTT): 16 µM"
"CCCCCCCCCCCCCCCC[n+]1ccccc1.O.[Cl-] [C16PyrCl, 1-hexadecylpyridinium chloride monohydrate, reference compound]",,100%,,,,,,,,,
"CCCCCCCCCCCCCCCCn1ccnc1 [C16Im, 1-hexadecylimidazole]",,100%,> 500,> 6.8,,,275,3.8,0.2 µM,,"RBC50 (CI 95%): concentration of compound that causes 50% of red blood cell hemolysis ([7]; human): > 100 µM; concentration causing significant parasite mortality ([5]; L. amazonensis promastigotes, 48 h): ≥ 10 µM; CC50 at 48 h [10]: 54.9 µM; IC50 [11, 16]: 8.3 µM"
"CCCCCCCCCCn1cc[n+](CCCCCCCCCC)c1C.[Cl-] [(C10)2MImCl, 1,3-Didecyl-2-methylimidazolium chloride]",,100%,105,11,significant ΔΨm depolarization,1.9 µM,82,8.6,0.2 µM,97%,"RBC50 (CI 95%): concentration of compound that causes 50% of red blood cell hemolysis ([7]; human red blood cells, 37°C): 20.9 (20-21.9) µM; viability at 48 h [10]: 94%; CC50 at 48 h ([10]; RAW cells, 48 h, MTT): 16.4 µM; IC50 [11, 16]: 16.5 µM"
"C[C@@H]1[C@H](O)[C@@H](C)/C=C/C=C/C=C/C=C/C=C/C=C/C=C/[C@H](O[C@@H]2O[C@H](C)[C@@H](O)[C@H](N)[C@@H]2O)C[C@@H]2O[C@](O)(C[C@@H](O)C[C@@H](O)[C@H](O)CC[C@@H](O)C[C@@H](O)CC(=O)O[C@H]1C)C[C@H](O)[C@H]2C(=O)O [amphotericin B, reference compound]",,,,,mitochondrial depolarization,0.4 µM,,,,100%,ROS production [13]: significant elevation in ROS production; mortality at 5 µM ([11]; read-out: mortality of L. infantum chagasi promastigotes): 100%
"CCCCCCCCCCn1cc[n+](C)c1.CS(=O)(=O)[O-] [C10MImMeS, 1-decyl-3-methylimidazolium methanesulfonate]",> 100 µM,100%,,> 8.6,ΔΨm hyperpolarization,11.6 µM,256,6.6,0.3 µM,60%,"concentration up to which no significant hemolysis ([7]; human erythrocytes): up to 40 µM; RBC50 (CI 95%): concentration of compound that causes 50% of red blood cell hemolysis ([7]; human red blood cells, 37°C): > 100 µM; concentration up to which more than 90% of the macrophages kept alive ([9]; mouse, 48 h): up to 50 µM; viability at 48 h [10]: 89%; CC50 at 48 h ([10]; RAW cells, 48 h, MTT): 76.9 µM"
"OO [H2O2, hydrogen peroxide, reference compound]",,,,,mitochondrial depolarization,,,,,,ROS production [13]: significant elevation in ROS production
"CCCCCCCCCCCCCCCCn1cc[n+](C)c1 [C16MImNTf2, 1-hexadecyl-3-methylimidazolium bis(trifluoromethylsulfonyl)imide]",,,,,,,,,,,IC50 [2]: 1.64 µM
"CCCCCCCCCCCCCCCCn1c(C)c(C)[n+](C)c1C.[Cl-] [C16M4ImCl, 1-hexadecyl-2,3,4,5-tetramethylimidazolium chloride]",,100%,78,8.7,significant ΔΨm depolarization,,89,10,,,"IC50 ([6]; Leishmania amazonensis, RAW264.7, 48 h, read-out: IC50 (CI 95%): concentration of compound that causes 50% of L. amazonensis amastigotes mortality): 0.2 µM; RBC50 (CI 95%): concentration of compound that causes 50% of red blood cell hemolysis ([7]; human red blood cells, 37°C): 15.6 (14.5-16.8) µM; L. amazonensis integrity (panoptic stain) [14]: total lysis of the parasites; CC50 [10]: 17.8 µM; viability [10]: 90%; IC50 ([12]; read-out: IC50 (CI 95%): concentration of compound that causes 50% of L. amazonensis promastigotes mortality): 1.8 µM; mortality at 5 µM ([12]; read-out: mortality of L. amazonensis promastigotes): 95%; IC50 ([11]; read-out: IC50 (CI 95%): concentration of compound that causes 50% of L. infantum chagasi promastigotes mortality): 14.9 µM"
"CCCCCCCCCCCCCCCCn1cc[n+](C)c1 [C16MImPF6, 1-hexadecyl-3-methylimidazolium hexafluorophosphate]",26.3 µM,100%,82.7,3.6,significant ΔΨm depolarization,6.9 µM,56,2.4,0.3 µM,37%,RBC50 (CI 95%): concentration of compound that causes 50% of red blood cell hemolysis ([7]; human): 24.8 (22.9-26.8) µM; CC50 at 48 h [10]: 16.8 µM
"CCCCCCCCCCCCCCCCn1cc[n+](C)c1C.[Cl-] [C16M2ImCl, 1-hexadecyl-2,3-dimethylimidazolium chloride]",,100%,108,5.3,significant ΔΨm depolarization,4.1 µM,99,4.8,0.2 µM,85%,"RBC50 (CI 95%): concentration of compound that causes 50% of red blood cell hemolysis ([7]; human): 21.6 (20.8-22.5) µM; CC50 at 48 h ([10]; RAW cells, 48 h, MTT): 19.8 µM; IC50 [11, 16]: 15.4 µM"
"CCCCCCCCCCn1cc[n+](C)c1 [C10MImCl, 1-decyl-3-methylimidazolium chloride]",,,,,,,,,,,"IC50 [2]: 2.31 µM; IC50 [11, 16]: 115 µM"
